Calls of active or inactive are those of the source. The calls are words filed in the database; no cut-off is given here. Positions of bridges follow the written chain, without caps; N, C: chain ends. Non-standard residues stand in square brackets, D forms with d. Residues, ends and D or L forms follow the SMILES beside them. *: point of attachment. Nle = CCCC[C@H](N)C(=O)O; Cbz = O=C(OCc1ccccc1)*
Columns and labels:
PC-3 [1] = test: Antiproliferative activity against human PC3 cells at 200 nM after 120 hrs by MTT assay relative to DMSO; format: functional
PC-3 [2] = test: Antiproliferative activity against human PC3 cells at 100 nM after 120 hrs by MTT assay relative to DMSO; format: functional
HEK293 [3] = test: Inhibition of HSP90 expressed in HEK293 cells assessed as effect on Akt1:p27 interaction complexes by EYFP and/or YFP Venus fragment based reporter gene assay; format: cell-based
PC-3 [4] = test: Antiproliferative activity against human PC3 cells at 2.5 uM after 120 hrs by MTT assay relative to DMSO; format: functional
PC-3 [5] = test: Antiproliferative activity against human PC3 cells at 300 nM after 120 hrs by MTT assay relative to DMSO; format: functional
PC-3 [6] = test: Antiproliferative activity against human PC3 cells at 25 uM after 120 hrs by MTT assay relative to DMSO; format: functional
HEK293 [7] = test: Inhibition of proteasome expressed in HEK293 cells assessed as effect on CyclinD1-CDK4 interaction complexes by EYFP and/or YFP Venus fragment based reporter gene assay
HEK293 [8] = test: Inhibition of proteasome expressed in HEK293 cells assessed as effect on E6:E6AP interaction complexes by EYFP and/or YFP Venus fragment based reporter gene assay
HEK293 [9] = test: Inhibition of proteasome expressed in HEK293 cells assessed as effect on Pin1-Jun interaction complexes by EYFP and/or YFP Venus fragment based reporter gene assay
HEK293 [10] = test: Inhibition of proteasome expressed in HEK293 cells assessed as effect on p53-Chk1 interaction complexes by EYFP and/or YFP Venus fragment based reporter gene assay
HEK293 [11] = test: Inhibition of proteasome expressed in HEK293 cells assessed as effect on p53-p53 interaction complexes by EYFP and/or YFP Venus fragment based reporter gene assay
Cofilin-1 (Homo sapiens) [12] = target: Cofilin-1 (Homo sapiens) (UniProt P23528); test: Effect on cofilin1 expressed in HEK293 cells assessed as effect on cofilin1; Limk2 interaction complexes by EYFP and/or YFP Venus fragment based reporter gene assay; format: cell-based
Cofilin-1 (Homo sapiens), sequence (P23528 whole entry, the tested form may be a part): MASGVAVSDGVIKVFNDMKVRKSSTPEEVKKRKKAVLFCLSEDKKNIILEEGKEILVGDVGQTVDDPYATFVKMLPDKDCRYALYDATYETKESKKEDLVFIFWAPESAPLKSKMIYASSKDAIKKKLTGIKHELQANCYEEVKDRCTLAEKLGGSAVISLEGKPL

PC-3 [13] = test: Antiproliferative activity against human PC3 cells at 50 uM after 120 hrs by MTT assay relative to DMSO; format: functional
PC-3 [14] = test: Antiproliferative activity against human PC3 cells after 120 hrs by MTT assay; format: functional, cell-based; details: PC-3, 120 h
A549 = test: Antiproliferative activity against human A549 cells after 120 hrs by MTT assay; format: functional, cell-based; details: A549, 120 h
MIA PaCa-2 = test: Antiproliferative activity against human MIAPaCa2cells after 120 hrs by MTT assay; format: functional, cell-based; details: MIA PaCa-2, 120 h
LoVo = test: Antiproliferative activity against human LoVo cells after 120 hrs by MTT assay; format: functional, cell-based
[15] = Antiproliferative activity against human U87MG cells after 120 hrs by MTT assay; format: functional, cell-based, U-87MG ATCC; details: U-87 MG
PC-3 [16] = test: Antiproliferative activity against human PC3 cells at 1 uM after 120 hrs by MTT assay relative to DMSO; format: functional
[17] = target: Transcription factor Jun (Homo sapiens) (UniProt P05412); test: Activation of c-Jun expressed in HEK293 cells assessed as induction of protein interaction with Pin1 by EYFP based reporter gene assay; format: cell-based
Transcription factor Jun (Homo sapiens), sequence (P05412 whole entry, the tested form may be a part): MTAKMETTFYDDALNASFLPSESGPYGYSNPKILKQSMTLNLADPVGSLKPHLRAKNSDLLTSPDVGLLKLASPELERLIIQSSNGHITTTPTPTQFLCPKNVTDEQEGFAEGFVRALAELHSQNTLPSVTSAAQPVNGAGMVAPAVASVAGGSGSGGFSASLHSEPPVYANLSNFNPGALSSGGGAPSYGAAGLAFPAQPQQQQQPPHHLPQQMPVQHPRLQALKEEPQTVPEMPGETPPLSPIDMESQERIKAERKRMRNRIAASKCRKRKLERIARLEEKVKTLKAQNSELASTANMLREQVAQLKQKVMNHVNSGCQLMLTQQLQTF

[18] = target: Cyclin-dependent kinase 1 (Homo sapiens) (UniProt P06493); test: Effect on Cdc2 expressed in HEK293 cells assessed as effect on Cdc2:Cdc25C interaction complexes in presence of camptothecin by EYFP and/or YFP Venus fragment based reporter gene assay; format: cell-based
Cyclin-dependent kinase 1 (Homo sapiens), sequence (P06493 whole entry, looked up, the tested form may be a part): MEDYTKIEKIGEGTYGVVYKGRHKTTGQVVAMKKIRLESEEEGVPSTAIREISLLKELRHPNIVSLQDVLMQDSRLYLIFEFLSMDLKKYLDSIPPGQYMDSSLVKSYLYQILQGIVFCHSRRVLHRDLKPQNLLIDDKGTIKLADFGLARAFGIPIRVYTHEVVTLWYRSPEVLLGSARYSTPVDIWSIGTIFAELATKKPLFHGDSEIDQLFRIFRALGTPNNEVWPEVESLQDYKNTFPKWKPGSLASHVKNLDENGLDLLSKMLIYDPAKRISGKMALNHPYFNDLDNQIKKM

[19] = target: Cyclin-dependent kinase 1 (Homo sapiens) (UniProt P06493); test: Effect on Cdc2 expressed in HEK293 cells assessed as effect on Cdc2:Cdc25A interaction complexes in presence of camptothecin by EYFP and/or YFP Venus fragment based reporter gene assay; format: cell-based
[20] = target: Transcription factor Jun (Homo sapiens) (UniProt P05412); test: Inhibition of c-Jun expressed in HEK293 cells assessed as induction of protein interaction in presence of camptothecin with Pin1 by EYFP based reporter gene assay; format: cell-based
Cofilin-1 (Homo sapiens) [21] = target: Cofilin-1 (Homo sapiens) (UniProt P23528); test: Effect on cofilin1 expressed in HEK293 cells assessed as effect on cofilin1; Limk2 interaction complexes in presence of camptothecin by EYFP and/or YFP Venus fragment based reporter gene assay; format: cell-based
[22] = target: Cyclin-dependent kinase 1 (Homo sapiens) (UniProt P06493); test: Inhibition of Cdc2 expressed in HEK293 cells assessed as effect on Cdc2:Cdc25C interaction complexes in presence of camptothecin by EYFP and/or YFP Venus fragment based reporter gene assay; format: cell-based
PC-3 [23] = test: Antiproliferative activity against human PC3 cells at 30 uM after 120 hrs by MTT assay relative to DMSO; format: functional
PC-3 [24] = test: Antiproliferative activity against human PC3 cells at 15 uM after 120 hrs by MTT assay relative to DMSO; format: functional
PC-3 [25] = test: Antiproliferative activity against human PC3 cells at 250 nM after 120 hrs by MTT assay relative to DMSO; format: functional
PC-3 [26] = test: Antiproliferative activity against human PC3 cells at 1.5 uM after 120 hrs by MTT assay relative to DMSO; format: functional
PC-3 [27] = test: Antiproliferative activity against human PC3 cells at 10 uM after 120 hrs by MTT assay relative to DMSO; format: functional
Cofilin-1 (Homo sapiens) [28] = target: Cofilin-1 (Homo sapiens) (UniProt P23528); test: Inhibition of cofilin1 expressed in HEK293 cells assessed as effect on cofilin1; Limk2 interaction complexes by EYFP and/or YFP Venus fragment based reporter gene assay; format: cell-based
PC-3 [29] = test: Antiproliferative activity against human PC3 cells at 5 uM after 120 hrs by MTT assay relative to DMSO; format: functional
PC-3 [30] = test: Antiproliferative activity against human PC3 cells at 50 ug/ml after 120 hrs by MTT assay relative to DMSO; format: functional

COc1cc2ncnc(Nc3cccc(Br)c3)c2cc1OC
fold change (FC) (PC-3 [1]): 0.983

C/C(=C\c1csc(C)n1)[C@@H]1C[C@@H]2O[C@@H]2CCC[C@H](C)[C@H](O)[C@@H](C)C(=O)C(C)(C)[C@@H](O)CC(=O)O1 [EPOTHILONE A]
fold change (FC) (PC-3 [2]): 0.291

Cc1[nH]c(=O)c(C#N)cc1-c1ccncc1 [MILRINONE]
fold change (FC) (PC-3 [1]): 1.015

COC1=C2C[C@@H](C)C[C@H](OC)[C@H](O)[C@@H](C)/C=C(\C)[C@H](OC(N)=O)[C@@H](OC)/C=C\C=C(/C)C(=O)NC(=CC1=O)C2=O [GELDANAMYCIN]
inhibition (HEK293 [3]): Active
fold change (FC) (PC-3 [4]): 0.261

CC[C@H](C)[C@H](NC(=O)[C@H](Cc1ccc(O)cc1)NC(=O)[C@@H](NC(=O)[C@H](CCCNC(=N)N)NC(=O)[C@@H](N)CC(=O)O)C(C)C)C(=O)N[C@@H](Cc1cnc[nH]1)C(=O)N1CCC[C@H]1C(=O)N[C@@H](Cc1ccccc1)C(=O)O [ANGIOTENSIN II]
fold change (FC) (PC-3 [5]): 1.018

CCCC[C@@H](C=O)NC(=O)[C@H](CC(C)C)NC(=O)[C@H](CC(C)C)NC(C)=O (Ac-Leu-Leu-[Nle]-aldehyde)
fold change (FC) (PC-3 [6]): 0.26
inhibition (HEK293 [7]): Active
inhibition (HEK293 [8]): Active
inhibition (HEK293 [9]): Active
inhibition (HEK293 [10]): Active
inhibition (HEK293 [11]): Active
Activity (Cofilin-1 (Homo sapiens) [12]): Active

Br.Cc1ccc(C(=O)Cn2c3c(sc2=N)CCCC3)cc1
fold change (FC) (PC-3 [13]): 0.424

Cn1c2ccccc2c2c3c(c4c5ccccc5n(CCC#N)c4c21)CNC3=O [GO-6976]
fold change (FC) (PC-3 [2]): 1.119

O=C(Nc1ccc([N+](=O)[O-])cc1Cl)c1cc(Cl)ccc1O [NICLOSAMIDE]
IC50 (PC-3 [14]): 400 nM
IC50 (A549): 400 nM
IC50 (MIA PaCa-2): 1100 nM
IC50 (LoVo): 700 nM
IC50 [15]: 400 nM
fold change (FC) (PC-3 [16]): 0.408

CC(C)OC(=O)C(C)(C)Oc1ccc(C(=O)c2ccc(Cl)cc2)cc1
Activity [17]: Active
Activity [18]: Active
Activity [19]: Active
Activity [20]: Active
Activity (Cofilin-1 (Homo sapiens) [21]): Active
inhibition [22]: Active

CC(=O)O[C@H]1C(=O)[C@@]2(C)[C@H]([C@H](OC(=O)c3ccccc3)[C@]3(O)C[C@H](OC(=O)[C@H](O)[C@@H](NC(=O)c4ccccc4)c4ccccc4)C(C)=C1C3(C)C)[C@]1(OC(C)=O)CO[C@@H]1C[C@@H]2O [PACLITAXEL]
fold change (FC) (PC-3 [4]): 0.281

C=C(C)[C@H]1Cc2c(ccc3c2O[C@@H]2COc4cc(OC)c(OC)cc4[C@@H]2C3=O)O1 [ROTENONE]
fold change (FC) (PC-3 [5]): 0.548
Activity [18]: Active
Activity [19]: Active
Activity [20]: Active
Activity (Cofilin-1 (Homo sapiens) [21]): Active

Cc1ccc(C)c(OCCCC(C)(C)C(=O)O)c1 [GEMFIBROZIL]
fold change (FC) (PC-3 [23]): 1.046
Activity [17]: Active

CN(CCOc1ccc(CC2SC(=O)NC2=O)cc1)c1ccccn1 (stereo not given) [ROSIGLITAZONE]
fold change (FC) (PC-3 [24]): 0.925

O=c1cc(-c2ccc(O)cc2)oc2cc(O)cc(O)c12 [APIGENIN]
fold change (FC) (PC-3 [13]): 0.552

COc1ccc(-n2nc(C(F)(F)F)cc2-c2ccc(Cl)cc2)cc1 [SC-560]
fold change (FC) (PC-3 [25]): 1.036

O=C1CCC(N2C(=O)c3ccccc3C2=O)C(=O)N1 (stereo not given) [THALIDOMIDE]
fold change (FC) (PC-3 [25]): 0.992

CO[C@H]1C[C@@H]2CC[C@@H](C)[C@@](O)(O2)C(=O)C(=O)N2CCCC[C@H]2C(=O)O[C@H]([C@H](C)C[C@@H]2CC[C@@H](O)[C@H](OC)C2)CC(=O)[C@H](C)/C=C(\C)[C@@H](O)[C@@H](OC)C(=O)[C@H](C)C[C@H](C)/C=C/C=C/C=C/1C [SIROLIMUS]
fold change (FC) (PC-3 [25]): 0.401

CC(C)C[C@@H](C=O)NC(=O)[C@H](CC(C)C)NC(=O)[C@H](CC(C)C)NC(=O)OCc1ccccc1 [MG-132] (Cbz-Leu-Leu-Leu-aldehyde)
fold change (FC) (PC-3 [16]): 0.255
inhibition (HEK293 [7]): Active
inhibition (HEK293 [8]): Active
inhibition (HEK293 [9]): Active
inhibition (HEK293 [10]): Active
inhibition (HEK293 [11]): Active
Activity (Cofilin-1 (Homo sapiens) [12]): Active

CC1(COc2ccc(CC3SC(=O)NC3=O)cc2)CCCCC1 (stereo not given) [CIGLITAZONE]
fold change (FC) (PC-3 [24]): 0.934

CC(C)(Oc1ccc(C2CC2(Cl)Cl)cc1)C(=O)O (stereo not given) [CIPROFIBRATE]
fold change (FC) (PC-3 [23]): 1.047
Activity [17]: Active

C=C1C[C@@H]2[C@H](CC[C@]3(C)C(=O)CC[C@@H]23)[C@@]2(C)C=CC(=O)C=C12 [EXEMESTANE]
fold change (FC) (PC-3 [26]): 0.975

CN[C@H]1CC[C@@H](c2ccc(Cl)c(Cl)c2)c2ccccc21 [SERTRALINE]
fold change (FC) (PC-3 [27]): 0.226
Activity [18]: Active
Activity [19]: Active
Activity [20]: Active
Activity (Cofilin-1 (Homo sapiens) [21]): Active
inhibition (Cofilin-1 (Homo sapiens) [28]): Active

CCOC(=O)C(C)(C)Oc1ccc(Cl)cc1 [CLOFIBRATE]
fold change (FC) (PC-3 [23]): 1.021
Activity [17]: Active
Activity [18]: Active
Activity [19]: Active
Activity [20]: Active
Activity (Cofilin-1 (Homo sapiens) [21]): Active
inhibition [22]: Active

C=CCNC1=C2C[C@@H](C)C[C@H](OC)[C@H](O)[C@@H](C)/C=C(\C)[C@H](OC(N)=O)[C@@H](OC)/C=C\C=C(/C)C(=O)NC(=CC1=O)C2=O (stereo in doubt) [TANESPIMYCIN]
inhibition (HEK293 [3]): Active
fold change (FC) (PC-3 [29]): 0.264

N#Cc1ccc(C(c2ccc(C#N)cc2)n2cncn2)cc1 [LETROZOLE]
fold change (FC) (PC-3 [26]): 1.001

C[C@H]1CCC/C=C/[C@@H]2C[C@H](O)C[C@H]2[C@H](O)/C=C/C(=O)O1 [BREFELDIN A]
fold change (FC) (PC-3 [30]): 0.245

CC[C@H](C)[C@H](NC(=O)[C@@H](NC(=O)[C@H](CC(=O)O)NC(=O)[C@H](CCC(N)=O)NC(=O)[C@H](Cc1cnc[nH]1)NC(=O)[C@@H]1CSSC[C@H](N)C(=O)N[C@@H](CO)C(=O)N[C@H]2CSSC[C@H](NC(=O)[C@H](CCC(=O)O)NC(=O)[C@H](CCCCN)NC(=O)[C@H](CC(=O)O)NC(=O)[C@H]([C@@H](C)O)NC(=O)[C@H](CCSC)NC(=O)[C@H](CC(=O)O)NC(=O)[C@H](CCCCN)NC2=O)C(=O)N[C@@H](CC(C)C)C(=O)N[C@@H](Cc2ccc(O)cc2)C(=O)N[C@@H](Cc2ccccc2)C(=O)N1)C(C)C)C(=O)N[C@@H](Cc1c[nH]c2ccccc12)C(=O)O (H-CSCKDMTDKECLYFCHQDVIW-OH; disulfide 1-15, 3-11)
fold change (FC) (PC-3 [2]): 1.037

Cn1c(=O)c2c(ncn2C)n(C)c1=O [CAFFEINE]
fold change (FC) (PC-3 [13]): 0.952
